Entries after “also recorded” stand apart in the source; their conditions may differ. Ends that are not written are not given here.
Legend:
peptide-pulsed T2 cells [1] = assay: IFN-gamma ELISA assay on CTL lines (HLA-A*0201); format: cell-based, human; details: target cells pulsed with corresponding peptide vs without peptide
peptide-pulsed T2 cells [2] = assay: IFN-gamma ELISA assay on CTL clones established by limiting dilution (HLA-A*0201); format: cell-based, human; details: peptide-pulsed target cells
Method: The dilutions were made to have 0.3, 1, and 3 CTLs/well in 96 round-bottomed micro titer plate (Nalge Nunc International). CTLs were cultured with 1×10^4 cells/well of 2 kinds of human B-lymphoblastoid cell lines, 30 ng/ml of anti-CD3 antibody, and 125 U/ml of IL-2 in a total of 150 and/well of AIM-VMedium containing 5% AS. 50 mcl/well of IL-2 were added to the medium 10 days later so to reach a final concentration of 125 U/ml IL-2. CTL activity was tested on the 14th day, and CTL clones were expanded using the same method as described above (Uchida N et al., Clin Cancer Res 2004 Dec. 15, 10(24): 8577-86; Suda T et al., Cancer Sci 2006 May, 97(5): 411-9; Watanabe T et al., Cancer Sci 2005 August, 96(8): 498-506).
Specifically, peptide-pulsed A24 or T2 LCL (1×10^4/well) was prepared as stimulator cells. Cultured cells in 48 wells were used as responder cells. IFN-gamma ELISPOT assay and IFN-gamma ELISA assay were performed under manufacture procedure.

[3] = test system: COS7 cells transfected with IQGAP3 and HLA-A*0201; assay: Specific CTL activity against target cells exogenously expressing IQGAP3 and HLA-A*0201; format: cell-based; details: for specific CTL activity of CTL clone against controls: COS7 cells expressing either HLA-A*0201 or IQGAP3 alone; for specific CTL activity of CTL clone: COS7 cells transfected with both IQGAP3 and HLA-A*0201
From the text: The cDNA encoding an open reading frame of target genes or HLA-A*0201 was amplified by PCR. The PCR-amplified products were cloned into pCAGGS vector. The plasmids were transfected into COST, which is the target genes and HLA-A*0201-negative cell line, using lipofectamine 2000 (Invitrogen) according to the manufacturer's recommended procedures. After 2 days from transfection, the transfected cells were harvested with versene (Invitrogen) and used as the target cells (5×10^4 cells/well) for CTL activity assay

peptide-pulsed T2 cells [4] = assay: IFN-gamma ELISPOT assay on CTLs induced with HLA-A*0201 restricted peptides; format: cell-based, human; details: against peptide-pulsed target cells compared with control without peptide
[5] = test system: peptide-pulsed A24LCL cells; assay: IFN-gamma ELISPOT assay on CTLs induced with HLA-A*2402 restricted peptides; format: cell-based, human; details: against peptide-pulsed target cells compared with control without peptide, listed as IQGAP3-A24-9-779
[6] = test system: COS7 cells transfected with IQGAP3 and HLA-A*2402; assay: Specific CTL activity against target cells exogenously expressing IQGAP3 and HLA-A*2402; format: cell-based
From the text: The cDNA encoding an open reading frame of target gene or HLA-A24 was amplified by PCR. The PCR-amplified product was cloned into pCAGGS vector. The plasmids were transfected into COS7, which is the target gene and HLA-A24-null cell line, using lipofectamine 2000 (Invitrogen) according to the manufacturer's recommended procedures. After 2 days from transfection, the transfected cells were harvested with versene (Invitrogen) and used as the target cells (5×10^4 cells/well) for CTL activity assay.

[7] = test system: peptide-pulsed A24LCL cells; assay: IFN-gamma ELISA assay on CTL lines (HLA-A*2402); format: cell-based, human; details: target cells pulsed with corresponding peptide vs without peptide

GLDDVSLPV [SEQ ID NO: 85]
IFN-gamma production of established CTL lines (ELISA) (peptide-pulsed T2 cells [1]): potent IFN-gamma production
IFN-gamma production of CTL clones (ELISA) (peptide-pulsed T2 cells [2]; listed as IQGAP3-A02-9-553): potent IFN-gamma production
specific CTL activity of CTL clone against controls [3]: no significant specific CTL activity
specific CTL activity of CTL clone ([3]; listed as IQGAP3-A02-9-553): potent CTL activity; also recorded: specific CTL activity
IFN-gamma production of peptide-induced CTLs (ELISPOT) (peptide-pulsed T2 cells [4]; listed as IQGAP3-A02-9-553): potent IFN-gamma production ability

GLVDeLAKDI (GLVDELAKDI; not fully specified (residue 5); printed as GLVDeLAKDI) [SEQ ID NO: 145]
IFN-gamma production of established CTL lines (ELISA) (peptide-pulsed T2 cells [1]): potent IFN-gamma production
IFN-gamma production of CTL clones (ELISA) (peptide-pulsed T2 cells [2]; listed as IQGAP3-A02-10-1461): potent IFN-gamma production
IFN-gamma production of peptide-induced CTLs (ELISPOT) (peptide-pulsed T2 cells [4]; listed as IQGAP3-A02-10-1461): potent IFN-gamma production ability

VLNDYLEET [SEQ ID NO: 99]
IFN-gamma production of established CTL lines (ELISA) (peptide-pulsed T2 cells [1]): potent IFN-gamma production
specific CTL activity of CTL clone against controls [3]: no significant specific CTL activity
specific CTL activity of CTL clone ([3]; listed as IQGAP3-A02-9-1234): potent CTL activity; also recorded: specific CTL activity
IFN-gamma production of peptide-induced CTLs (ELISPOT) (peptide-pulsed T2 cells [4]; listed as IQGAP3-A02-9-1234): potent IFN-gamma production ability

SLFLFRLGL [SEQ ID NO: 75]
IFN-gamma production of established CTL lines (ELISA) (peptide-pulsed T2 cells [1]): potent IFN-gamma production
IFN-gamma production of CTL clones (ELISA) (peptide-pulsed T2 cells [2]; listed as IQGAP3-A02-9-146): potent IFN-gamma production
IFN-gamma production of peptide-induced CTLs (ELISPOT) (peptide-pulsed T2 cells [4]; listed as IQGAP3-A02-9-146): potent IFN-gamma production ability

LLYYrFLNPA (LLYYRFLNPA; not fully specified (residue 5); printed as LLYYrFLNPA) [SEQ ID NO: 121]
IFN-gamma production of established CTL lines (ELISA) (peptide-pulsed T2 cells [1]): potent IFN-gamma production
IFN-gamma production of CTL clones (ELISA) (peptide-pulsed T2 cells [2]; listed as IQGAP3-A02-10-1174): potent IFN-gamma production
IFN-gamma production of peptide-induced CTLs (ELISPOT) (peptide-pulsed T2 cells [4]; listed as IQGAP3-A02-10-1174): potent IFN-gamma production ability

GLLVkNRITL (GLLVKNRITL; not fully specified (residue 5); printed as GLLVkNRITL) [SEQ ID NO: 130]
IFN-gamma production of established CTL lines (ELISA) (peptide-pulsed T2 cells [1]): potent IFN-gamma production
IFN-gamma production of CTL clones (ELISA) (peptide-pulsed T2 cells [2]; listed as IQGAP3-A02-10-903): potent IFN-gamma production
IFN-gamma production of peptide-induced CTLs (ELISPOT) (peptide-pulsed T2 cells [4]; listed as IQGAP3-A02-10-903): potent IFN-gamma production ability

LLAKlGHCFA (LLAKLGHCFA; not fully specified (residue 5); printed as LLAKlGHCFA) [SEQ ID NO: 143]
IFN-gamma production of established CTL lines (ELISA) (peptide-pulsed T2 cells [1]): potent IFN-gamma production
IFN-gamma production of CTL clones (ELISA) (peptide-pulsed T2 cells [2]; listed as IQGAP3-A02-10-67): potent IFN-gamma production
IFN-gamma production of peptide-induced CTLs (ELISPOT) (peptide-pulsed T2 cells [4]; listed as IQGAP3-A02-10-67): potent IFN-gamma production ability

IYLEWLQYF [SEQ ID NO: 7]
IFN-gamma production of peptide-induced CTLs (ELISPOT) [5]: potent IFN-gamma production ability
specific CTL activity of CTL line against controls ([6]; COS7 cells expressing either HLA-A*2402 or IQGAP3 alone): no significant specific CTL activity
specific CTL activity of CTL line ([6]; COS7 cells transfected with both IQGAP3 and HLA-A*2402, listed as IQGAP3-A24-9-779): potent CTL activity; also recorded: specific CTL activity
IFN-gamma production of established CTL lines (ELISA) [7]: potent IFN-gamma production

From patent US20110200626A1, “IQGAP3 EPITOPE PEPTIDES AND VACCINES CONTAINING THE SAME” (Oncotherapy Science, Inc., priority 2008, published 2011)
